Test [1] has as its target T1, KIT(D816V) (Homo sapiens, UniProt P10721, D816V).
T1 construct: literature Ambit Biosciences
The settings on record: 1 μM, duplicate, without preincubation; cited from earlier work.

In test [2] the target is T2, FGFR3 (Homo sapiens, UniProt P22607).
T2 construct: literature Ambit Biosciences
The settings on record: 1 μM, duplicate, without preincubation; cited from earlier work.

For test [3], the target named is T3, VEGFR2 (Homo sapiens, UniProt P35968).
T3 construct: literature Ambit Biosciences
Particulars: 1 μM, duplicate, without preincubation; cited from earlier work.

For test [4], the target named is T4, EGFR (Homo sapiens, UniProt P00533).
T4 construct: literature Ambit Biosciences
The settings on record: 1 μM, duplicate, without preincubation; cited from earlier work.

For test [5], the target named is EPHA2 (Homo sapiens, UniProt P29317). Also on record: literature Ambit Biosciences. Particulars: 1 μM, duplicate, without preincubation; cited from earlier work.
In test [6] the target is T5, MKNK2 (Homo sapiens, UniProt Q9HBH9).
T5 construct: literature Ambit Biosciences
The settings on record: 1 μM, duplicate, without preincubation; cited from earlier work.

Test [7] deals with T6, ERBB4 (Homo sapiens, UniProt Q15303).
T6 construct: literature Ambit Biosciences
The settings on record: 1 μM, duplicate, without preincubation; cited from earlier work.

Test [8] addresses MET (Homo sapiens, UniProt P08581). Description: Nanosyn kinase profiling, % inhibition. It counts as biochemical. Particulars: panel of 230 kinases. As to the method:
(§1) “Inhibiting kinase activity” means to decrease the production of an phosphor-peptide by a particular kinase that can be separated by analytical techniques. For example, a comprehensive platform of kinase, protease, phosphatase and epigenetic assays that utilizes cutting-edge microfluidics and informatics tools to provide accurate and rapid results. Profiling data in this application were determined using these techniques at Nanosyn Inc. IC50 data were provided by Reaction Biology Inc using a P33 radiolabeled kinase assay.
(§2) A total of 15 new inhibitors were designed, prepared, and evaluated against a panel of 29 selected kinases in order to explore the applicability, SAR trends, and the tunability of this scaffold that could be imposed but this unique geometry, Table 21. Inhibitors I-1 to 1-12 all retained the 2-CF3-5-(4-F-phenyl) imidazole-4-carboxamide scaffold previously described (Deitrich, 2010), but explored different Hinge-Gatekeeper Motifs (HGM).
(§3) More modest activity for Aurora-A, FLT-1/4, KDR, KIT, PDGFRs was accompanied by better activity for B-Raf mutant and wild-type forms, Modest inhibition of MEK-1, BTK, c-Met, RET, and RON was also observed. […] Moreover, the observed inhibition of MEK-1 with 1-12 and TYK2 with I-6 represents additional activities against kinases for which no type-II inhibitors have been reported to date. […] To further evaluate the scope of inhibition, I-6 was evaluated against a larger panel of 230 kinases, Table-22.

Test [9] addresses TIE2 (Homo sapiens, UniProt Q02763). Description: Nanosyn kinase profiling, % inhibition. It counts as biochemical. The settings on record: panel of 230 kinases. How it is done: as §1, §2, §3
Test [10] concerns the target FLT3 (Homo sapiens, UniProt P36888). Description: Nanosyn kinase profiling, % inhibition. It counts as biochemical. The settings on record: panel of 230 kinases. As to the method: as §1, §2, §3
Test [11] has as its target KDR (Homo sapiens, UniProt P35968). Kind of test: Nanosyn kinase profiling, % inhibition. It counts as biochemical. The settings on record: panel of 230 kinases. As to the method: as §1, §2, §3

The structures appear in SMILES notation.

Chain of FLT3 (P36888 27-993): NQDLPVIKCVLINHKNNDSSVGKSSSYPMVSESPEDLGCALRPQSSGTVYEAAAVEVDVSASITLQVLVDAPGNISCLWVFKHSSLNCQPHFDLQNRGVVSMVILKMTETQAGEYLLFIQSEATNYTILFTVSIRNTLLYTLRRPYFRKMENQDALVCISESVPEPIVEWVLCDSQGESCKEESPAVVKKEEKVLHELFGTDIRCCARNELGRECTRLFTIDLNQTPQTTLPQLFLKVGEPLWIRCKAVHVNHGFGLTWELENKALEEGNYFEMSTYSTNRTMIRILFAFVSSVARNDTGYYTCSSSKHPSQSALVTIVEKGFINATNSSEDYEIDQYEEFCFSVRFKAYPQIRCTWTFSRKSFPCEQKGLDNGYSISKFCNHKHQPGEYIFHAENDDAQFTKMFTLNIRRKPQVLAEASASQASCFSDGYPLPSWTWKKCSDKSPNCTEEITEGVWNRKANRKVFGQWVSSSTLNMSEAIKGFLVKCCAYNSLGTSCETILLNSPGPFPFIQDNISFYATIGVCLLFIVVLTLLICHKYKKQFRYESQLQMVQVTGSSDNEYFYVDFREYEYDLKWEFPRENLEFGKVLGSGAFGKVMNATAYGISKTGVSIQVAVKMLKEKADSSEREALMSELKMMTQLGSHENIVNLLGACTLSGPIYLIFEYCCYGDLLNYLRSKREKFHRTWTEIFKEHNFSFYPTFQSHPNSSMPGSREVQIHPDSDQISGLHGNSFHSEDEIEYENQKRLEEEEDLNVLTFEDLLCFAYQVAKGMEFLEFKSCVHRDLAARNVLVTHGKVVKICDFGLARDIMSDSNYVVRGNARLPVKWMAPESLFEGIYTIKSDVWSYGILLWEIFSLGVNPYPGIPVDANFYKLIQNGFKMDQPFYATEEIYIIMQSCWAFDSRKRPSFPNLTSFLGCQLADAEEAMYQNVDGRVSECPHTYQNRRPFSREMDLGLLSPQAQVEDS
T5 sequence (Q9HBH9 whole entry): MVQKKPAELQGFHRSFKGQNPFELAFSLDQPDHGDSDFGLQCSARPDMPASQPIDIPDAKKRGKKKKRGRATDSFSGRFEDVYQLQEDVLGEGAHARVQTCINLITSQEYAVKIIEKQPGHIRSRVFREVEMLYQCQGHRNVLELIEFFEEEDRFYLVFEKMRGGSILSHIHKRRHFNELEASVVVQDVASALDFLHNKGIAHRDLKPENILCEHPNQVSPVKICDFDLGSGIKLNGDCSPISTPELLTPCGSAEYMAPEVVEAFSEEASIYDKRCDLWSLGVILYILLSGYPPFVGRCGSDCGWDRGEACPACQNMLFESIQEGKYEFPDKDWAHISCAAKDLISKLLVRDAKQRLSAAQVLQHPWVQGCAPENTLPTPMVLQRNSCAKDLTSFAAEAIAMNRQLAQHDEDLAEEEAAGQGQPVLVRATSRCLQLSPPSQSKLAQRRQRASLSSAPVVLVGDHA
T2 sequence (P22607 23-806): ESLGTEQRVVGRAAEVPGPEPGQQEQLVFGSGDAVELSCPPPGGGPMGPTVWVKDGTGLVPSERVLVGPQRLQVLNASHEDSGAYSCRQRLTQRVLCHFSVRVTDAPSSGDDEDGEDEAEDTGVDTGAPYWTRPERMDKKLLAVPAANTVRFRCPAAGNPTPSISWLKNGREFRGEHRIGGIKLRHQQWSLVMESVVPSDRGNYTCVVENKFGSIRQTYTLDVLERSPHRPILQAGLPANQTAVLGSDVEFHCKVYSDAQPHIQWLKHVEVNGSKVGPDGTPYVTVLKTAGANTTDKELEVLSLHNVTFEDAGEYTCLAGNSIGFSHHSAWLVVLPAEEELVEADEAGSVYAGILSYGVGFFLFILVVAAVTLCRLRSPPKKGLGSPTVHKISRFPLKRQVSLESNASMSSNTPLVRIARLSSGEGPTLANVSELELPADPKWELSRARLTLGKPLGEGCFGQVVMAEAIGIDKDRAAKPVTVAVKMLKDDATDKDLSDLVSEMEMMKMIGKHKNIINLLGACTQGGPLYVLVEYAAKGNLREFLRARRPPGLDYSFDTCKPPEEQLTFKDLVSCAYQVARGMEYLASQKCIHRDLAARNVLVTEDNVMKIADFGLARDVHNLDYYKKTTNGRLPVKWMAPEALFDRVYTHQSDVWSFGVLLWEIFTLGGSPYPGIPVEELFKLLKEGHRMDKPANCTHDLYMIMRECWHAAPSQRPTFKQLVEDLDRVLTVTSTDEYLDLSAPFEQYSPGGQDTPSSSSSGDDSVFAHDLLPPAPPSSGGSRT
Chain of EPHA2 (P29317 24-976): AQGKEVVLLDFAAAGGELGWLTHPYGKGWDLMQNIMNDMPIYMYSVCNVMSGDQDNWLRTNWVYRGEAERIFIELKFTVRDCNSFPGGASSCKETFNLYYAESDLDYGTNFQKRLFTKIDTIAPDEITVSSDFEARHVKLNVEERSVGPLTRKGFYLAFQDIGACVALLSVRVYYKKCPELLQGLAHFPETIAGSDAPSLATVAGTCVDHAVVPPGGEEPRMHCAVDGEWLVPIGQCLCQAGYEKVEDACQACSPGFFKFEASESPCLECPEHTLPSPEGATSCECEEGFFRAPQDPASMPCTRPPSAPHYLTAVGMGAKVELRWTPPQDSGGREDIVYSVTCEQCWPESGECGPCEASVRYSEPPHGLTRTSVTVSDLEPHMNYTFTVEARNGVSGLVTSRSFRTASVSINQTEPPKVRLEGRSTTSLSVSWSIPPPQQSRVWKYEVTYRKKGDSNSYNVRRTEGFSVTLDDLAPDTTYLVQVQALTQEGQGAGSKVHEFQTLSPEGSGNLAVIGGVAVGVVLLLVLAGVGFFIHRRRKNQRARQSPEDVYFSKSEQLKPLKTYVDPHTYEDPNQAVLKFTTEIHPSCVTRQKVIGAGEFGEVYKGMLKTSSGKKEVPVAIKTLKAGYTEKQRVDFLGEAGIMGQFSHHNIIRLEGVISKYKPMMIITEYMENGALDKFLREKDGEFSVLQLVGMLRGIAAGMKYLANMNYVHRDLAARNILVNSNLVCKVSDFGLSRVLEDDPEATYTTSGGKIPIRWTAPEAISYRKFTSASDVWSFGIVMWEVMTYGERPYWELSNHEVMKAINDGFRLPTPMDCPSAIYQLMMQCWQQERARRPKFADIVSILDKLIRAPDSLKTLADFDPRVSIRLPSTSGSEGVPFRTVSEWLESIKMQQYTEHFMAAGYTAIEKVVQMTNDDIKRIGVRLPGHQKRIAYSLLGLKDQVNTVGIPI
T1 sequence (P10721 26-976 D816V): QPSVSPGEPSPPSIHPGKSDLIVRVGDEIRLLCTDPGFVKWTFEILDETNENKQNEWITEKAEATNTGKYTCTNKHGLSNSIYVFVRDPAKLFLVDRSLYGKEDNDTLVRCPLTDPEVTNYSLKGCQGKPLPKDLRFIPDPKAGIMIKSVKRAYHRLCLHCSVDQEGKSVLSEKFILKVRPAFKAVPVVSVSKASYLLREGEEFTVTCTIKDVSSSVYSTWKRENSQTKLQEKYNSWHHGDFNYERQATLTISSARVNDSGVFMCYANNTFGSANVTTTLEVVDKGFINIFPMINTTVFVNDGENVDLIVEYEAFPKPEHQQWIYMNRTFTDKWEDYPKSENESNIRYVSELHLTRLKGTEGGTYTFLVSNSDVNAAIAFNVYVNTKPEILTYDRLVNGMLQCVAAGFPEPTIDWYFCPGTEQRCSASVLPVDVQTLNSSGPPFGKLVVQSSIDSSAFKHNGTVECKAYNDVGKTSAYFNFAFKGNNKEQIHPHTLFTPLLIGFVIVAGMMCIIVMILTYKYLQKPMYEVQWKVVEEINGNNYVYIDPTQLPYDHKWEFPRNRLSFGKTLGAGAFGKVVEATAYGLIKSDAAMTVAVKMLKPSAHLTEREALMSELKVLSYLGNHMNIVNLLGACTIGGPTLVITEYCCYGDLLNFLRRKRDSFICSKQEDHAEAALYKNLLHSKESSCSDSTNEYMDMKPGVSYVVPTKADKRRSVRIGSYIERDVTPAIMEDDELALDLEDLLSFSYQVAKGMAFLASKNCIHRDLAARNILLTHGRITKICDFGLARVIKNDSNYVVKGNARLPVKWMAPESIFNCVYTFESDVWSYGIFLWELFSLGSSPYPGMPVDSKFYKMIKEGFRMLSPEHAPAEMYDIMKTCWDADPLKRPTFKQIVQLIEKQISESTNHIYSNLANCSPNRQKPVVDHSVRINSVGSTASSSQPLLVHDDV

As for `Cc1ccc(-c2nc(C(F)(F)F)[nH]c2C(=O)Nc2ccc(C)c(Nc3ccc4ncn(C)c(=O)c4c3)c2)cc1F` [KIN-038], the “inhibition of KIT(D816V)” value in test [1] was “X (X > 25% @ 1 μM)”. Besides, in test [2], the “inhibition of FGFR3” value is on record as “X (X > 25% @ 1 μM)”.

`Cc1ccc(NC(=O)c2[nH]c(C(F)(F)F)nc2-c2ccc(F)cc2)cc1Nc1ccc2ncn(C)c(=O)c2c1` [KIN-035]: the “inhibition of VEGFR2” value in [3] is reported as “X (X > 25% @ 1 μM)”. Also, in test [4], the “inhibition of EGFR” value is “X (X > 25% @ 1 μM)”. Also, the “inhibition of EPHA2” value in test [5] is “XX (XX > 50% @ 1 μM)”. Further, the “inhibition of MKNK2” value in test [6] is recorded as “X (X > 25% @ 1 μM)”. For the same molecule, the “inhibition of ERBB4” value in test [7] is given as “X (X > 25% @ 1 μM)”.

One may read the inhibition as the share of the control response that was lost under treatment. Read a high inhibition as a strong effect. In the case of `CNC(=O)c1cc(Oc2ccc(NC(=O)c3nc(C(F)(F)F)[nH]c3-c3ccc(F)cc3)cc2)ccn1` [Inhibitor I-6, 4-(4-{[5-(4-Fluoro-phenyl)-2-trifluoromethyl-3H-imidazole-4-carbonyl]-amino}-phenoxy)-pyridine-2-carboxylic acid methylamide], the inhibition at 5 µM in test [8], in [9], in test [10] and in test [11] was at least 50% each time.

These data come from patent US9833455B2, “Preparation and methods of use for ortho-aryl 5-membered heteroaryl-carboxamide containing multi-targeted kinase inhibitors” (Spacefill Enterprises LLC, priority 2011, dated 2017).
